# Experimental data taken from US11458123B2 (Arvinas, Inc., priority 2016, dated 2022).
# System: tau protein
# Assay: Tau protein in vitro degradation assay (Western blot, Tau-13 antibody)
# Assay type: cell-based, human
# Conditions: SK-N-SH cells; 72 hours of incubation; tested at 300 nM, 100 nM, 33 nM and 11 nM; Western blot, Tau-13 antibody
# Outline: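 SK-N-SH cells, seeded ≥18 h beforehand, were incubated 72 h with tau PROTACs at 1000, 300 and 100 nM or at 300, 100, 33 and 11 nM. Lysates in protease-inhibitor buffer were resolved by SDS-PAGE; tau quantified by Western blot with Tau-13 antibody recognising all human tau forms.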
Structure (SMILES),Degradation activity (tau protein remaining; highest amount of degradation observed at any dosage),Degradation activity* (highest amount of degradation observed at any dosage; tau protein remaining)
"Cn1c2ccncc2c2ccc(-c3ccc(O[C@H]4C[C@H](N(C)C(=O)C56CC(COCCCCOc7ccc8c(c7)C(=O)N(C7CCC(=O)NC7=O)C8=O)(C5)C6)C4)nc3)cc21 (some centres unmarked) [Compound 199, 3-((4-((2-(2,6-dioxopiperidin-3-yl)-1,3-dioxoisoindolin-5-yl)oxy)butoxy)methyl)-N-methyl-N-((1r,3r)-3-((5-(5-methyl-5H-pyrido[4,3-b]indol-7-yl)pyridin-2-yl)oxy)cyclobutyl)bicyclo[1.1.1]pentane-1-carboxamide]",C (>80% tau protein remaining after 72 hours of incubation with the test compound),–
"O=C1CCC(N2C(=O)c3ccc(OCCCCCc4ccc(O[C@H]5C[C@H](Oc6ccc(-c7ccc8c(c7)[nH]c7ccncc78)cn6)C5)cn4)cc3C2=O)C(=O)N1 (some centres unmarked) [Compound 83, 5-((5-(5-((1r,3r)-3-((5-(5H-pyrido[4,3-b]indol-7-yl)pyridin-2-yl)oxy)cyclobutoxy)pyridin-2-yl)pentyl)oxy)-2-(2,6-dioxopiperidin-3-yl)isoindoline-1,3-dione]",–,C (>80% tau protein remaining after 72 hours of incubation with the test compound)
"Cn1c2ccncc2c2ccc(-c3ccc(O[C@H]4C[C@H](Oc5ccc(CCCCCCOc6ccc7c(c6)C(=O)N(C6CCC(=O)NC6=O)C7=O)cc5)C4)nc3)cc21 (some centres unmarked) [Compound 147, 2-(2,6-dioxopiperidin-3-yl)-5-((6-(4-((1r,3r)-3-((5-(5-methyl-5H-pyrido[4,3-b]indol-7-yl)pyridin-2-yl)oxy)cyclobutoxy)phenyl)hexyl)oxy)isoindoline-1,3-dione]",–,C (>80% tau protein remaining after 72 hours of incubation with the test compound)
"O=C1CCC(N2C(=O)c3ccc(OCCCc4ccc(O[C@H]5C[C@H](Oc6ccc(-c7ccc8c(c7)[nH]c7ccncc78)cn6)C5)cn4)cc3C2=O)C(=O)N1 (some centres unmarked) [Compound 77, 5-(3-(5-((1r,3r)-3-((5-(5H-pyrido[4,3-b]indol-7-yl)pyridin-2-yl)oxy)cyclobutoxy)pyridin-2-yl)propoxy)-2-(2,6-dioxopiperidin-3-yl)isoindoline-1,3-dione]",–,C (>80% tau protein remaining after 72 hours of incubation with the test compound)
"Cn1c2ccncc2c2ccc(-c3ccc(O[C@H]4C[C@H](Oc5ccc(C#CCOc6ccc7c(c6)C(=O)N(C6CCC(=O)NC6=O)C7=O)nc5)C4)nc3)cc21 (some centres unmarked) [Compound 117, 2-(2,6-dioxopiperidin-3-yl)-5-((3-(5-((1r,3r)-3-((5-(5-methyl-5H-pyrido[4,3-b]indol-7-yl)pyridin-2-yl)oxy)cyclobutoxy)pyridin-2-yl)prop-2-yn-1-yl)oxy)isoindoline-1,3-dione]",–,C (>80% tau protein remaining after 72 hours of incubation with the test compound)
"Cn1c2ccncc2c2ccc(-c3cnc(OCCOCCOCCOCCOCCOc4ccc5c(c4)C(=O)N(C4CCC(=O)NC4=O)C5=O)c(F)c3)cc21 (centres unmarked) [Compound 139, 2-(2,6-dioxopiperidin-3-yl)-5-((14-((3-fluoro-5-(5-methyl-5H-pyrido[4,3-b]indol-7-yl)pyridin-2-yl)oxy)-3,6,9,12-tetraoxatetradecyl)oxy)isoindoline-1,3-dione]",–,B (≤80% and >50% tau protein remaining after 72 hours of incubation with the test compound)
"O=C1CCC(N2C(=O)c3ccc(OCCOCCOCCOCCOCCOc4ccc(-c5ccc6c7cnccc7n(CC(F)(F)F)c6c5)cn4)cc3C2=O)C(=O)N1 (centres unmarked) [Compound 88, 2-(2,6-dioxopiperidin-3-yl)-5-((14-((5-(5-(2,2,2-trifluoroethyl)-5H-pyrido[4,3-b]indol-7-yl)pyridin-2-yl)oxy)-3,6,9,12-tetraoxatetradecyl)oxy)isoindoline-1,3-dione]",–,A (≤50% tau protein remaining after 72 hours of incubation with the test compound)
"Cn1c2ccncc2c2ccc(-c3ccc(O[C@H]4C[C@H](OCC56CC(COCCOCCOc7ccc8c(c7)C(=O)N(C7CCC(=O)NC7=O)C8=O)(C5)C6)C4)nc3)cc21 (some centres unmarked) [Compound 209, 2-(2,6-dioxopiperidin-3-yl)-5-(2-(2-((3-(((1r,3r)-3-((5-(5-methyl-5H-pyrido[4,3-b]indol-7-yl)pyridin-2-yl)oxy)cyclobutoxy)methyl)bicyclo[1.1.1]pentan-1-yl)methoxy)ethoxy)ethoxy)isoindoline-1,3-dione]",A (≤50% tau protein remaining after 72 hours of incubation with the test compound),–
"Cc1ncsc1-c1ccc(CNC(=O)[C@@H]2C[C@@H](O)CN2C(=O)[C@H](C(C)C)N2Cc3ccccc3C2=O)c(OCCOc2ccc(-c3ccc4c(c3)[nH]c3ccncc34)cn2)c1 [Compound 185, (2S,4R)—N-(2-(2-((5-(5H-pyrido[4,3-b]indol-7-yl)pyridin-2-yl)oxy)ethoxy)-4-(4-methylthiazol-5-yl)benzyl)-4-hydroxy-1-((S)-3-methyl-2-(1-oxoisoindolin-2-yl)butanoyl)pyrrolidine-2-carboxamide]",C (>80% tau protein remaining after 72 hours of incubation with the test compound),–
"O=C1CCC(N2C(=O)c3ccc(OCCOCCOCCOCCOCCN4CCC(c5ccc6c(c5)[nH]c5ccncc56)CC4)cc3C2=O)C(=O)N1 (centres unmarked) [Compound 57, 5-((14-(4-(5H-pyrido[4,3-b]indol-7-yl)piperidin-1-yl)-3,6,9,12-tetraoxatetradecyl)oxy)-2-(2,6-dioxopiperidin-3-yl)isoindoline-1,3-dione]",–,C (>80% tau protein remaining after 72 hours of incubation with the test compound)
"O=C1CCC(N2C(=O)c3ccc(OC4CN(CCCOCCCO[C@H]5C[C@H](Oc6ncc(-c7ccc8c(c7)[nH]c7ccncc78)cc6C(F)(F)F)C5)C4)cc3C2=O)C(=O)N1 (some centres unmarked) [Compound 101, 5-((1-(3-(3-((1r,3r)-3-((5-(5H-pyrido[4,3-b]indol-7-yl)-3-(trifluoromethyl)pyridin-2-yl)oxy)cyclobutoxy)propoxy)propyl)azetidin-3-yl)oxy)-2-(2,6-dioxopiperidin-3-yl)isoindoline-1,3-dione]",–,A (≤50% tau protein remaining after 72 hours of incubation with the test compound)
"Cc1ncsc1-c1ccc([C@H](C)NC(=O)[C@@H]2C[C@@H](O)CN2C(=O)[C@@H](NC(=O)COCCOc2ccc(-c3ccc4c(c3)[nH]c3ccncc34)cn2)C(C)(C)C)cc1 [Compound 120, (2S,4R)-1-((S)-2-(2-(2-((5-(5H-pyrido[4,3-b]indol-7-yl)pyridin-2-yl)oxy)ethoxy)acetamido)-3,3-dimethylbutanoyl)-4-hydroxy-N—((S)-1-(4-(4-methylthiazol-5-yl)phenyl)ethyl)pyrrolidine-2-carboxamide]",–,C (>80% tau protein remaining after 72 hours of incubation with the test compound)

# Same assay, conditions: SK-N-SH cells; 72 hours of incubation; tested at 1000 nM, 300 nM and 100 nM
row,Structure (SMILES),"Activity* (highest amount of degradation observed at any dosage, as tau protein remaining)"
1,"Cc1ncsc1-c1ccc(CNC(=O)[C@@H]2C[C@@H](O)CN2C(=O)[C@@H](NC(=O)COCCOCCOCCN2CCN(c3ccn4c(n3)nc3ccccc34)CC2)C(C)(C)C)cc1 [Compound 7, (2S,4R)-1-((S)-14-(4-(benzo[4,5]imidazo[1,2-a]pyrimidin-2-yl)piperazin-1-yl)-2-(tert-butyl)-4-oxo-6,9,12-trioxa-3-azatetradecanoyl)-4-hydroxy-N-(4-(4-methylthiazol-5-yl)benzyl)pyrrolidine-2-carboxamide]",C (>80% tau protein remaining after 72 hours of incubation with the test compound)
2,"O=C1CCC(N2C(=O)c3cccc(NCCOCCOCCOCCOCCN4CCN(c5ccn6c(n5)nc5ccccc56)CC4)c3C2=O)C(=O)N1 (centres unmarked) [Compound 26, 4-((14-(4-(benzo[4,5]imidazo[1,2-a]pyrimidin-2-yl)piperazin-1-yl)-3,6,9,12-tetraoxatetradecyl)amino)-2-(2,6-dioxopiperidin-3-yl)isoindoline-1,3-dione]",C (>80% tau protein remaining after 72 hours of incubation with the test compound)
3,"Cc1ncsc1-c1ccc([C@H](C)NC(=O)[C@@H]2C[C@@H](O)CN2C(=O)[C@@H](NC(=O)COCCOCCOCCOCCOc2ccc3nc(-c4ccc(N(C)C)cc4)ccc3c2)C(C)(C)C)cc1 [Compound 32, (2S,4R)-1-((S)-2-tert-butyl-17-(2-(4-(dimethylamino)phenyl)quinolin-6-yloxy)-4-oxo-6,9,12,15-tetraoxa-3-azaheptadecane)-4-hydroxy-N—((S)-1-(4-(4-methylthiazol-5-yl)phenyl)ethyl)pyrrolidine-2-carboxamide]",C (>80% tau protein remaining after 72 hours of incubation with the test compound)
4,"Cc1ncsc1-c1ccc(CNC(=O)[C@@H]2C[C@@H](O)CN2C(=O)[C@@H](NC(=O)COCCCCOc2ccc3nc(-c4ccc(N(C)C)cc4)ccc3c2)C(C)(C)C)cc1 [Compound 33, (2S,4R)-1-((S)-2-(2-(4-(2-(4-(dimethylamino)phenyl)quinolin-6-yloxy)butoxy)acetamido)-3,3-dimethylbutanoyl)-4-hydroxy-N-(4-(4-methylthiazol-5-yl)benzyl)pyrrolidine-2-carboxamide]",C (>80% tau protein remaining after 72 hours of incubation with the test compound)
5,"Cc1ncsc1-c1ccc([C@H](C)NC(=O)[C@@H]2C[C@@H](O)CN2C(=O)[C@@H](NC(=O)COCCCOCCCOc2ccc3nc(-c4ccc(N(C)C)cc4)ccc3c2)C(C)(C)C)cc1 [Compound 36, (2S,4R)-1-((S)-2-(2-(3-(3-(2-(4-(dimethylamino)phenyl)quinolin-6-yloxy)propoxy)propoxy)acetamido)-3,3-dimethylbutanoyl)-4-hydroxy-N—((S)-1-(4-(4-methylthiazol-5-yl)phenyl)ethyl)pyrrolidine-2-carboxamide]",C (>80% tau protein remaining after 72 hours of incubation with the test compound)
